Bounds are passed on as bounds.

Data on 20 compounds can be found in patent US20230373985A1 (Origenis Gmbh, priority 2020, published 2023).

Test [1] has as its target T1, wt human TYK2, catalytic site (Homo sapiens, UniProt P29597).
T1 construct: wt human TYK2, catalytic site; purchased SignalChem
T1 sequence (P29597 897-1176 limits assumed): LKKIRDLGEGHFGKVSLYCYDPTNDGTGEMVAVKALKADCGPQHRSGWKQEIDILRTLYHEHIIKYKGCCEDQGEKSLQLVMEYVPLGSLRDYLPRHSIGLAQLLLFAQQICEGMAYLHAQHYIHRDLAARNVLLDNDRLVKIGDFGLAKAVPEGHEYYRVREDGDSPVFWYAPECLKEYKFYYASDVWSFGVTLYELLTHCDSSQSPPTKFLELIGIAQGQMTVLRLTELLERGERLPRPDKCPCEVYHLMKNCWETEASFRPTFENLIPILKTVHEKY
In words: HTRF KinEASE assay, TYK2. The format is biochemical. Conditions: 1 μM ATP; read-out: IC50, Activity Toward TYK2. The procedure, abridged:
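Kinase reaction run at room temperature for at least 30 min: 2 nM TYK2 with 1 μM ATP, or 1 nM JAK2 with 100 μM ATP, each with 1 μM biotin-TK substrate. Phosphorylation detected by HTRF (60 min antibody/XL665) and evaluated from emission ratios.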

The target of test [2] is T2, wt human LRRK2, catalytic site (Homo sapiens, UniProt Q5S007).
T2 construct: 5 nM wt human LRRK2, catalytic site; purchased ThermoFisher
T2 sequence (Q5S007 970-2527 limits assumed): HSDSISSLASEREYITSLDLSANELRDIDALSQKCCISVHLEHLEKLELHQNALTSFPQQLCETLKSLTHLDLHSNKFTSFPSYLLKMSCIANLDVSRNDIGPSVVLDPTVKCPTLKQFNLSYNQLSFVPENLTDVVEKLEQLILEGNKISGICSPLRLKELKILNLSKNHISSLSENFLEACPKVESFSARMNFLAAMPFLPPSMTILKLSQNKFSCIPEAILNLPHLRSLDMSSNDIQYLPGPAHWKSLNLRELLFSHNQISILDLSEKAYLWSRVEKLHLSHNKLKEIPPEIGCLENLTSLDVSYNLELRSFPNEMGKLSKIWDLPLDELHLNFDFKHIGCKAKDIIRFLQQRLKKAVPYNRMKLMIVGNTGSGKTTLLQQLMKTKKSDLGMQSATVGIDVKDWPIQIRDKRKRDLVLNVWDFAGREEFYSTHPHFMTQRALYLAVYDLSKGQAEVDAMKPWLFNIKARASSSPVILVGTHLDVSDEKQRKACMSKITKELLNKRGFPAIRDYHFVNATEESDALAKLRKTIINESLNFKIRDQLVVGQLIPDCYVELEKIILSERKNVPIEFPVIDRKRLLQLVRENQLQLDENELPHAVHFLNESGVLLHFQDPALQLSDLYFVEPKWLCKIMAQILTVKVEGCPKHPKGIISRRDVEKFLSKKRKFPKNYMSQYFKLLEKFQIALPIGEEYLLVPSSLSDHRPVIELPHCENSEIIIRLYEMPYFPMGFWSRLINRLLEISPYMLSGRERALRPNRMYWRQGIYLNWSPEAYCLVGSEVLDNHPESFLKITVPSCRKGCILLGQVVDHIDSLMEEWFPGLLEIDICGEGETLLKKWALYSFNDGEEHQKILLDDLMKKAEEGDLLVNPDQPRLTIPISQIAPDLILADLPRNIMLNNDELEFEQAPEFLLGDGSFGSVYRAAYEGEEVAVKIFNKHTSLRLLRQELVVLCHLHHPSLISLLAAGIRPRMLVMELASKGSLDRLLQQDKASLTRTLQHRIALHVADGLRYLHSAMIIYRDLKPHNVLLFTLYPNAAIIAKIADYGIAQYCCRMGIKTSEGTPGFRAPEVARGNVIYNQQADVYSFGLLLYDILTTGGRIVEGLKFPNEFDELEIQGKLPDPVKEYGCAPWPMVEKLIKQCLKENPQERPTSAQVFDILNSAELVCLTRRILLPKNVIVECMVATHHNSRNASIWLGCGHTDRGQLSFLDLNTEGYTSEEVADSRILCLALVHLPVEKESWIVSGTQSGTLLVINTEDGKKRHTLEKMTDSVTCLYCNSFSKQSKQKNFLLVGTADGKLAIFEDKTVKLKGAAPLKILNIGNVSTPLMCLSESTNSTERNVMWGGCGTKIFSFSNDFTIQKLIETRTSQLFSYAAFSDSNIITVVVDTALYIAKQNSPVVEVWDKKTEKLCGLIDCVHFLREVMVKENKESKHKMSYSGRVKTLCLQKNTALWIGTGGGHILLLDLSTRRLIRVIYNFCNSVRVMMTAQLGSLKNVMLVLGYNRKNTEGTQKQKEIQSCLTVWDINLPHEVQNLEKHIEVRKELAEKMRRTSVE
Nature of the test: TR-FRET LanthaScreen Eu Kinase Binding Assay, LRRK2 wt. Conditions: one range stated for wt and G2019, read-out: IC50, Activity Toward LRRK2(Wt). As for the experimental part: (§1) The basic protocol for TR-FRET LanthaScreen Eu Kinase Binding Assay inhibitor studies were performed as follows. LanthaScreen Kinase Binding Assays (ThermoFisher/USA) to evaluate inhibitors were performed by addition of 5 μL of test compound in corresponding DMSO dilutions/5 μl of kinase/antibody mixture, 5 μL of tracer into 384 well small volume plates. After incubation for 1 hour at room temperature, plates were read. Data analysis of emission ratios was according LanthaScreen Eu Kinase Binding Assay protocol.
(§2) Kinase and assay components were adjusted to final concentrations according to kit protocol. For LRRK2: 5 nM wt human LRRK2, catalytic site, or G2019S human LRRK2, catalytic site (ThermoFisher/USA), 2 nM Eu-Anti-GST Antibody, 10 nM Kinase Tracer 236 in 1× Kinase Buffer A. For NUAK1: 8 nM wt human NUAK1, full length (ThermoFisher/USA), 2 nM Eu-Anti-His Antibody, 5 nM Kinase Tracer 236 in 1× Kinase Buffer A.

Test [3] addresses T3, wt human JAK1, catalytic site (Homo sapiens, UniProt P23458).
T3 construct: wt human JAK1, catalytic site; purchased ThermoFisher
In words: HTRF KinEASE assay, JAK1. In kind it is biochemical. The note with it: 2.5 μM ATP; read-out: IC50, Activity Toward JAK1. The procedure, abridged: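 Compounds in DMSO dilution were mixed with kinase, biotin-TK substrate and ATP and reacted for ≥30 min at room temperature. Detection reagents (antibody, streptavidin-XL665) were read 60 min later as HTRF, with emission ratios analysed per KinEASE protocol.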

The target in test [4] is T4, G2019S human LRRK2, catalytic site (Homo sapiens, UniProt Q5S007, G2019S).
T4 construct: G2019S human LRRK2, catalytic site; purchased ThermoFisher
T4 sequence (Q5S007 970-2527 G2019S limits assumed): as the sequence (Q5S007 970-2527 limits assumed) above, with G1050S counted along it
Nature of the test: TR-FRET LanthaScreen Eu Kinase Binding Assay, LRRK2 G2019S. The note with it: LRRK2(G2019); one range stated for wt and G2019; read-out: IC50, Activity Toward LRRK2(G2019). As for the experimental part: as §1, §2

T3 sequence (P23458 875-1153 limits assumed): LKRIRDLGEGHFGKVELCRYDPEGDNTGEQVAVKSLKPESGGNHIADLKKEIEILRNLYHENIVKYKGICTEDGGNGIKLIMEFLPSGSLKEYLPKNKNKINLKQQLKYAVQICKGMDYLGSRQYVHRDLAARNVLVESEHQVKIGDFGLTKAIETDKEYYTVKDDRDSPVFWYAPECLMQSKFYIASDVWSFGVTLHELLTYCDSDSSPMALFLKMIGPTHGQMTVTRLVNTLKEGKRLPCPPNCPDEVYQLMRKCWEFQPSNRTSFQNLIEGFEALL

Take `Cc1ncnn1-c1ccc(Nc2cn(-c3c(Cl)cccc3Cl)nc2C(N)=O)cc1` [compound 326, 1-(2,6-dichlorophenyl)-4-((4-(5-methyl-1H-1,2,4-triazol-1-yl)phenyl)amino)-1H-pyrazole-3-carboxamide]: the 50% inhibitory concentration (IC50) lay in the range of 10 to 100 nM in test [1], 100 to 1000 nM in test [2], 10 to 100 nM in test [3] and 100 to 1000 nM in test [4].
For the compound `NC(=O)c1nn(-c2c(Cl)cccc2Cl)cc1Nc1ccc(C(=O)N2CC[C@@H](F)C2)cc1` [compound 315, (R)-1-(2,6-dichlorophenyl)-4-((4-(3-fluoropyrrolidine-1-carbonyl)phenyl)amino)-1H-pyrazole-3-carboxamide], the half-maximal inhibitory concentration (IC50) in test [1] was less than 10 nM; in test [2], 100 to 1000 nM; in test [3], 10 to 100 nM; in test [4], 100 to 1000 nM.
On to `COCc1nc(C(F)(F)F)nn1-c1ccc(Nc2cn(-c3c(F)cccc3F)nc2C(N)=O)cc1` [compound 299, 1-(2,6-difluorophenyl)-4-((4-(5-(methoxymethyl)-3-(trifluoromethyl)-1H-1,2,4-triazol-1-yl)phenyl)amino)-1H-pyrazole-3-carboxamide], for which the IC50 was less than 10 nM in test [1], 100 to 1000 nM in test [2], 100 to 1000 nM in test [3] and 100 to 1000 nM in test [4].
As to `CCn1cnnc1-c1ccc(Nc2cn(-c3c(Cl)ccc(F)c3Cl)nc2C(N)=O)cc1` [compound 418, 1-(2,6-dichloro-3-fluorophenyl)-4-((4-(4-ethyl-4H-1,2,4-triazol-3-yl)phenyl)amino)-1H-pyrazole-3-carboxamide], the half-maximal inhibitory concentration (IC50) in test [1] was 10 to 100 nM; in test [2], 100 to 1000 nM; in test [3] it was 10 to 100 nM; in test [4] it was 100 to 1000 nM.
With `CC(C)(C)NC(=O)c1ccc(Nc2cn(-c3c(F)cccc3F)nc2C(N)=O)cn1` [compound 23, N-(tert-butyl)-5-((3-carbamoyl-1-(2,6-difluorophenyl)-1H-pyrazol-4-yl)amino)picolinamide], the IC50 in test [1], in test [2] and in test [4] was 100 to 1000 nM each time.
In the case of `Cc1cccnc1-c1ccc(Nc2cn(-c3c(Cl)cccc3Cl)nc2C(N)=O)cn1` [compound 395, 1-(2,6-dichlorophenyl)-4-((3′-methyl-[2,2′-bipyridin]-5-yl)amino)-1H-pyrazole-3-carboxamide], the 50% inhibitory concentration (IC50) in test [1], in test [2], in test [3] and in test [4] was 100 to 1000 nM in each case.
As for `Cc1cnnn1-c1ccc(Nc2cn(-c3c(Cl)cccc3Cl)nc2C(N)=O)cc1` [compound 391, 1-(2,6-dichlorophenyl)-4-((4-(5-methyl-1H-1,2,3-triazol-1-yl)phenyl)amino)-1H-pyrazole-3-carboxamide], the IC50 in test [1] was 10 to 100 nM; in test [2] it was 100 to 1000 nM; in test [3], 10 to 100 nM; in test [4], 100 to 1000 nM.
For `Cc1ccnn1-c1ccc(Nc2cn(-c3c(F)cccc3Cl)nc2C(N)=O)cc1` [compound 233, 1-(2-chloro-6-fluorophenyl)-4-((4-(5-methyl-1H-pyrazol-1-yl)phenyl)amino)-1H-pyrazole-3-carboxamide], the concentration for half-maximal inhibition (IC50) in test [1] lay within 10 to 100 nM; in test [2], 100 to 1000 nM; in test [3] it was 10 to 100 nM; in test [4], 100 to 1000 nM.
On to `NC(=O)c1nn(-c2c(Cl)cccc2Cl)cc1Nc1ccc(C(=O)N2CC[C@H](F)C2)nc1` [compound 355, (S)-1-(2,6-dichlorophenyl)-4-((6-(3-fluoropyrrolidine-1-carbonyl)pyridin-3-yl)amino)-1H-pyrazole-3-carboxamide], for which the IC50 in test [1] was in the range of 10 to 100 nM; in test [2], 100 to 1000 nM; in test [3] it was 100 to 1000 nM; in test [4], 100 to 1000 nM.
For `CCn1cc(C(F)(F)F)nc1-c1ccc(Nc2cn(-c3c(F)cccc3Cl)nc2C(N)=O)cc1` [compound 303, 1-(2-chloro-6-fluorophenyl)-4-((4-(1-ethyl-4-(trifluoromethyl)-1H-imidazol-2-yl)phenyl)amino)-1H-pyrazole-3-carboxamide], the half-maximal inhibitory concentration (IC50) was in the range of 10 to 100 nM in test [1], 100 to 1000 nM in test [2], 10 to 100 nM in test [3] and 100 to 1000 nM in test [4].
Turning to `N#Cc1cn(CCO)c(-c2ccc(Nc3cn(-c4c(Cl)cccc4Cl)nc3C(N)=O)cn2)n1` [compound 387, 4-((6-(4-cyano-1-(2-hydroxyethyl)-1H-imidazol-2-yl)pyridin-3-yl)amino)-1-(2,6-dichlorophenyl)-1H-pyrazole-3-carboxamide], the half-inhibitory concentration (IC50) in test [1] was in the range of 10 to 100 nM; in test [2] it was 100 to 1000 nM; in test [3], 10 to 100 nM; in test [4], 100 to 1000 nM.
With `NC(=O)c1nn(-c2c(Cl)cccc2Cl)cc1Nc1ccc(-n2ncc3c2CCOC3)cc1` [compound 70, 1-(2,6-dichlorophenyl)-4-((4-(6,7-dihydropyrano[4,3-c]pyrazol-1(4H)-yl)phenyl)amino)-1H-pyrazole-3-carboxamide], the 50% inhibitory concentration (IC50) lay in the range of 10 to 100 nM in test [1], 100 to 1000 nM in test [2], 100 to 1000 nM in test [3] and 100 to 1000 nM in test [4].
Regarding `NC(=O)c1nn(-c2c(Cl)cccc2Cl)cc1Nc1ccc(-c2nnc3cncc(C(F)(F)F)n23)nc1` [compound 472, 1-(2,6-dichlorophenyl)-4-((6-(5-(trifluoromethyl)-[1,2,4]triazolo[4,3-a]pyrazin-3-yl)pyridin-3-yl)amino)-1H-pyrazole-3-carboxamide], the IC50 in test [1] was in the range of 10 to 100 nM; in test [2], 100 to 1000 nM; in test [3], 10 to 100 nM; in test [4] it was 100 to 1000 nM.
In the case of `CN=S1(=O)CCN(C(=O)c2ccc(Nc3cn(-c4c(Cl)cccc4Cl)nc3C(N)=O)cc2)CC1` [compound 466, 1-(2,6-dichlorophenyl)-4-((4-(1-(methylimino)-1-oxidothiomorpholine-4-carbonyl)phenyl)amino)-1H-pyrazole-3-carboxamide], the IC50 is less than 10 nM in test [1], 100 to 1000 nM in test [2], 10 to 100 nM in test [3] and 100 to 1000 nM in test [4].
With `NC(=O)c1nn(-c2c(Cl)cccc2Cl)cc1Nc1ccc(C(=O)N2CC3(CCC3)C2)cc1` [compound 46, 4-((4-(2-azaspiro[3.3]heptane-2-carbonyl)phenyl)amino)-1-(2,6-dichlorophenyl)-1H-pyrazole-3-carboxamide], the IC50 was less than 10 nM in test [1], 100 to 1000 nM in test [2], less than 10 nM in test [3] and 100 to 1000 nM in test [4].
For `COc1ccccc1-c1ccc(Nc2cn(-c3c(Cl)cccc3Cl)nc2C(N)=O)cn1` [compound 344, 1-(2,6-dichlorophenyl)-4-((6-(2-methoxyphenyl)pyridin-3-yl)amino)-1H-pyrazole-3-carboxamide], the IC50 in test [1], in test [2] and in test [4] was 100 to 1000 nM in each case.
Regarding `Cc1ccnc(Nc2cn(-c3c(F)cccc3F)nc2C(N)=O)c1` [compound 10, 1-(2,6-difluorophenyl)-4-((4-methylpyridin-2-yl)amino)-1H-pyrazole-3-carboxamide], the IC50 in test [1], in test [2] and in test [4] was 100 to 1000 nM each time.
For the compound `NC(=O)c1nn(-c2c(Cl)cccc2Cl)cc1Nc1ccc(-c2nnc3cncc(Cl)n23)nc1` [compound 447, 4-((6-(5-chloro-[1,2,4]triazolo[4,3-a]pyrazin-3-yl)pyridin-3-yl)amino)-1-(2,6-dichlorophenyl)-1H-pyrazole-3-carboxamide], the half-inhibitory concentration (IC50) in test [1] and in test [3] was 10 to 100 nM each time.
On to `NC(=O)c1nn(-c2c(Cl)cccc2Cl)cc1Nc1ccc(CC(=O)N2CCOCC2)nc1` [compound 440, 1-(2,6-dichlorophenyl)-4-((6-(2-morpholino-2-oxoethyl)pyridin-3-yl)amino)-1H-pyrazole-3-carboxamide], for which the values for the IC50 in test [1] and in test [3] were 100 to 1000 nM and 10 to 100 nM, respectively.
`CC(C)(C)NC(=O)c1ccc(Nc2cn(-c3c(Cl)cccc3Cl)nc2C(N)=O)cc1F` [compound 28, 4-((4-(tert-butylcarbamoyl)-3-fluorophenyl)amino)-1-(2,6-dichlorophenyl)-1H-pyrazole-3-carboxamide]: the IC50 is 10 to 100 nM in test [1] and 100 to 1000 nM in test [3].
